The values below come from ChEMBL document CHEMBL1129889, “Design and synthesis of novel nonpeptide CCK-B receptor antagonists” (Bioorg Med Chem Lett, 1997).

SMILES strings stand for the structures. Some results are limits rather than exact numbers.

The target of test [1] is T1, Cholecystokinin receptor type A (Rattus norvegicus, UniProt P30551).
T1 sequence (P30551 whole entry): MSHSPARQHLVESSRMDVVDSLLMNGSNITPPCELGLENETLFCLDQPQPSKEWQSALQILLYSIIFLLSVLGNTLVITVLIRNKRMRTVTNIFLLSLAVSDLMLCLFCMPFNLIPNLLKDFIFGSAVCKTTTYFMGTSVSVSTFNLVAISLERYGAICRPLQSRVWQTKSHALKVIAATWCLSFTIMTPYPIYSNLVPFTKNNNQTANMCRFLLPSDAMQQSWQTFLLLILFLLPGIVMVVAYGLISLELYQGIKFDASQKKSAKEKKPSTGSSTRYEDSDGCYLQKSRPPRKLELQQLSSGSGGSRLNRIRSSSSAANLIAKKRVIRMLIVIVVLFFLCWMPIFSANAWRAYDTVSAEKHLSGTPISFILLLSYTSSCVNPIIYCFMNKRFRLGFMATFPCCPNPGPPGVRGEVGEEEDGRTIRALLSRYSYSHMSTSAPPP
The test is described as follows: Inhibition of specific binding of [125 I] Bolton Hunter CCK-8 to Cholecystokinin type A receptor in the rat pancreas.

The target in test [2] is T2, Gastrin/cholecystokinin type B receptor (Mus musculus, UniProt P56481).
T2 sequence (P56481 whole entry): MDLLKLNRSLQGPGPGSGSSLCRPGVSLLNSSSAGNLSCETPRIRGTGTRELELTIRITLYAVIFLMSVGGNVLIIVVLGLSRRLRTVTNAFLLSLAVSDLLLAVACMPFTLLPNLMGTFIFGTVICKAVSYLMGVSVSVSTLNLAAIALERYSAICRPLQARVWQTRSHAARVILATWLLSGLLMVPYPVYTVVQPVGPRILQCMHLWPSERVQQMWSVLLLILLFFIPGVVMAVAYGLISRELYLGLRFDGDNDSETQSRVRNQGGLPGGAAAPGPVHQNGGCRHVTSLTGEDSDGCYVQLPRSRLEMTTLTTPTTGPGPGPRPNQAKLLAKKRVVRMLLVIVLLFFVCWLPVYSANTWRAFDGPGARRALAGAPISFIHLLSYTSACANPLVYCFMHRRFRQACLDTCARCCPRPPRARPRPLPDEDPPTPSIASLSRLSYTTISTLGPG
The test can be described thus: Inhibition of [125 I]CCK-8 binding to Cholecystokinin type B receptor of mouse cerebral cortex. Type of test: tissue-based.

Test [3] has as its target T3, Gastrin/cholecystokinin type B receptor (Mus musculus) (UniProt P56481).
T3 sequence (whole entry): T2 sequence (P56481 whole entry)
The test is described as follows: Binding activity.

For orientation: IC50 means the midpoint of a concentration-inhibition curve. A lower IC50 goes with greater potency. Turning to `CC(C)Oc1cccc(-n2c(CCNC(=O)Nc3ccc(Br)cc3)nc3ccccc3c2=O)c1`, the IC50 in test [1] amounted to 1630 nM; in test [2] it was 585 nM.

For the compound `CC(C)Oc1cccc(-n2c(CNC(=O)Nc3ccc(Br)cc3)nc3ccccc3c2=O)c1`, the Ke in test [3] was determined as 1300 nM. Further, the IC50 in test [1] stood at 984 nM; in test [2], 137 nM.

With `Cc1ccc(S(=O)(=O)NC(=O)NCc2nc3ccccc3c(=O)n2-c2cccc(OC(C)C)c2)cc1`, the IC50 in test [1] and in test [2] was more than 1000 nM throughout.

For the compound `CC(C)Oc1cccc(-n2c(CNC(=O)Nc3ccc([N+](=O)[O-])cc3)nc3ccccc3c2=O)c1`, the IC50 turned out to be 385 nM in test [1] and 212 nM in test [2].

Consider `CC(C)Oc1cccc(-n2c(NC(=O)Nc3ccc(Br)cc3)nc3ccccc3c2=O)c1`, for which the IC50 in test [1] and in test [2] was more than 1000 nM throughout.

As to `Cc1cccc(NC(=O)NCc2nc3ccccc3c(=O)n2-c2cccc(OC(C)C)c2)c1`, the concentration for half-maximal inhibition (IC50) in test [1] amounted to 1640 nM; in test [2], 879 nM.

In the case of `CC(C)Oc1cccc(-n2c(CNC(=O)NCc3ccc(Br)cc3)nc3ccccc3c2=O)c1`, the values for the IC50 in test [1] and in test [2] were 3100 nM and 652 nM, respectively.

For `CC(C)Oc1cccc(-n2c(CNC(=O)Nc3ccc(C(F)(F)F)cc3)nc3ccccc3c2=O)c1`, the IC50 in test [1] is 674 nM; in test [2], 691 nM.

As for `CC(C)Oc1cccc(-n2c(CNC(=S)Nc3ccc(Br)cc3)nc3ccccc3c2=O)c1`, the concentration for half-maximal inhibition (IC50) in test [1] is 6930 nM; in test [2], 8020 nM.

In turn, `CCOC(=O)c1cccc(NC(=O)NCc2nc3ccccc3c(=O)n2-c2cccc(OC(C)C)c2)c1` returned a Ke in test [3] of 230 nM. In addition, the IC50 in test [1] came out at 1470 nM; in test [2], 126 nM.
